Source: publication PMC4335020, “Single Oral Dose Pharmacokinetics of Decursin and Decursinol Angelate in Healthy Adult Men and Women” (PLoS ONE, 2015)
Like-named read-outs stand apart in the source and are kept apart here.

Assay: Single oral dose human plasma pharmacokinetics of D, DA and DOH after Cogni.Q
Type: in vivo
Details: for Tmax / AUC(0-t) / Cmax / half-life: human, plasma
From the text: Ten healthy male and 10 female subjects were recruited by public announcement in Amarillo, TX, from January 2013 to April 2013 (see Fig. 1 CONSORT diagram). The sample size for each gender was chosen without power calculation due to the lack of prior knowledge of PK parameter variance in humans. After receiving informed consent verbally and in writing, the health status of each candidate was confirmed by health questionnaire, plasma biochemistry (hepatic and renal functions), complete blood cell count (CBC), and a physical examination by a participating academic physician. Subjects with diabetes, or pregnant, perinatal and breastfeeding women were excluded. For the 48 hours preceding study visit until the final blood draw, all subjects were instructed to avoid taking any prescription or nonprescription drugs, vitamins, and herbal/dietary supplements. Each subject was compensated for participating in the study per TTUHSC IRB approved rate.
Eligible subjects arrived at our clinical facility at 0700 (7:00 am) on the test day after a fast beginning at 2200 (10:00 pm) the previous night. After a brief review of vital signs, the nurse placed an intravenous (IV) line with saline drip in one arm of each subject. A baseline pre-dose (hour 0) blood sample was drawn through the IV line; after that subjects swallowed four Cogni.Q vegicaps with 240 mL of water at hour 0 under direct supervision. Subjects stayed at the clinical facility in their room for the next 12 hours, returning at 24 and 48 hours. Blood was drawn at baseline (hour 0) and at 0.5, 1, 2, 3, 4, 6, 8, 12, 24 and 48 hours after dosing into Vacutainer Blood Collection Tube (Becton-Dickinson, Franklin Lakes, NJ. Product Number: 367874, Sodium heparin was used as anti-coagulant). Water was allowed as desired except for within the first hour after Cogni.Q consumption. All subjects received standardized meals at post-dose hours 4.5 and 9.5 but no food was allowed for at least the first 4 hours post-dose.
Plasma was prepared by centrifuging the heparinized blood at 1000 g for 15 minutes at room temperature. Urine samples (40mL) were collected within time spans of 0–4, 4–8, 8–12 and 12–24 hours (total volume of urine was recorded). All plasma and urine samples were put on dry ice immediately and then stored at -80°C freezer until analysis.
Plasma samples were extracted with a validated solid supported liquid extraction (SLE) method facilitated with a positive pressure manifold (Biotage, Charlotte, NC). Briefly, 100 μL of plasma sample was spiked with 5 μL of 10 ng/μL prednisolone (IS), diluted with 200 μL of LC-MS grade water, mixed and loaded onto ISOLUTE SLE+ 400 μL Array Well cartridges (Biotage, Charlotte, NC). A pulse of minimum positive pressure was applied to facilitate the samples absorption into the cartridges. After the samples were allowed to absorb for 5 min, the compounds were eluted with 2×500 μL tert-butyl methyl ether. The eluent was dried in a Speedvac and the resulting residue was reconstituted in 50 μL of methanol for UHPLC-MS/MS analysis.
Eight-point calibration curves were constructed for D, DA and DOH, at concentrations of 0.1, 0.5, 1, 5, 10, 20, 50 and 100 μg/L for D and DA, and at concentrations of 1, 5, 10, 50, 100, 200, 500 and 1000 μg/L for DOH, respectively. The linear range was 0.1–100 μg/L (0.3–300 nmol/L), 0.1–100 μg/L (0.3–300 nmol/L) and 1–1000 μg/L (4–4000 nmol/L) for D, DA and DOH, respectively. The inter- and intra-assay CV were lower than 6.5% and the accuracy was between 90–105%. Calibration curve was run for each batch of samples analyzed. The mean calibration curve correlation coefficient (r) for D, DA and DOH was 0.999, 0.999 and 0.998, respectively (data from 7–10 calibration curves). In addition, 70% of the plasma samples were extracted and analyzed twice, the data from two replicate analyses were nearly identical and combined for final data analyses and presentation. […]

Q: For `C/C=C(/C)C(=O)O[C@H]1Cc2cc3ccc(=O)oc3cc2OC1(C)C` [DA, decursinol angelate], which Tmax (oral, 4 Cogni.Q vegicaps, subject S9 (158 lb), read-out: Tmax) is on record?
A: Its Tmax is 1 h.

Q: And the AUC(0-t) (oral, 4 Cogni.Q vegicaps, subject S10 (185 lb), read-out: AUC0-48h)?
A: The AUC(0-t) was 115 nmol·h/L.

Q: And the Cmax (oral, 4 Cogni.Q vegicaps, subject S10 (185 lb), read-out: Cmax)?
A: Its Cmax is 7 nM.

Q: And the half-life (oral, 4 Cogni.Q vegicaps, subject S10 (185 lb), read-out: Terminal t1/2, h (converted))?
A: The half-life was 798 min.

Q: What about the Tmax (oral, 4 Cogni.Q vegicaps, subject S10 (185 lb), read-out: Tmax) of the same compound?
A: Its Tmax is 2 h.

Q: And the AUC(0-t) (oral, 4 Cogni.Q vegicaps, subject S11 (178 lb), read-out: AUC0-48h)?
A: Its AUC(0-t) is 168 nmol·h/L.

Q: What about the Cmax (oral, 4 Cogni.Q vegicaps, subject S11 (178 lb), read-out: Cmax) of the same compound?
A: The Cmax was 29.7 nM.

Q: What about the half-life (oral, 4 Cogni.Q vegicaps, subject S11 (178 lb), read-out: Terminal t1/2, h (converted)) of the same compound?
A: Its half-life is 852 min.

Q: What about the Tmax (oral, 4 Cogni.Q vegicaps, subject S11 (178 lb), read-out: Tmax) of the same compound?
A: Its Tmax is 1 h.

Q: What about the AUC(0-t) (oral, 4 Cogni.Q vegicaps, subject S12 (169 lb), read-out: AUC0-48h) of the same compound?
A: The AUC(0-t) was 150 nmol·h/L.

Q: And the Cmax (oral, 4 Cogni.Q vegicaps, subject S12 (169 lb), read-out: Cmax)?
A: The Cmax was 16.8 nM.

Q: What about the half-life (oral, 4 Cogni.Q vegicaps, subject S12 (169 lb), read-out: Terminal t1/2, h (converted)) of the same compound?
A: The half-life was 2410 min.

Q: And the Tmax (oral, 4 Cogni.Q vegicaps, subject S12 (169 lb), read-out: Tmax)?
A: Its Tmax is 2 h.

Q: What about the AUC(0-t) (oral, 4 Cogni.Q vegicaps, subject S13 (192 lb), read-out: AUC0-48h) of the same compound?
A: The AUC(0-t) was 106 nmol·h/L.

Q: What about the Cmax (oral, 4 Cogni.Q vegicaps, subject S13 (192 lb), read-out: Cmax) of the same compound?
A: Its Cmax is 11.2 nM.

Q: And the half-life (oral, 4 Cogni.Q vegicaps, subject S13 (192 lb), read-out: Terminal t1/2, h (converted))?
A: The half-life was 762 min.

Q: What about the Tmax (oral, 4 Cogni.Q vegicaps, subject S13 (192 lb), read-out: Tmax) of the same compound?
A: The Tmax was 1 h.

Q: What about the AUC(0-t) (oral, 4 Cogni.Q vegicaps, subject S14 (200 lb), read-out: AUC0-48h) of the same compound?
A: The AUC(0-t) was 96.4 nmol·h/L.

Q: And the Cmax (oral, 4 Cogni.Q vegicaps, subject S14 (200 lb), read-out: Cmax)?
A: Its Cmax is 24.4 nM.

Q: What about the half-life (oral, 4 Cogni.Q vegicaps, subject S14 (200 lb), read-out: Terminal t1/2, h (converted)) of the same compound?
A: The half-life was 756 min.

Q: What about the Tmax (oral, 4 Cogni.Q vegicaps, subject S14 (200 lb), read-out: Tmax) of the same compound?
A: Its Tmax is 1 h.

Q: What about the AUC(0-t) (oral, 4 Cogni.Q vegicaps, subject S15 (177 lb), read-out: AUC0-48h) of the same compound?
A: Its AUC(0-t) is 512 nmol·h/L.

Q: What about the Cmax (oral, 4 Cogni.Q vegicaps, subject S15 (177 lb), read-out: Cmax) of the same compound?
A: The Cmax was 196 nM.

Q: What about the half-life (oral, 4 Cogni.Q vegicaps, subject S15 (177 lb), read-out: Terminal t1/2, h (converted)) of the same compound?
A: Its half-life is 1120 min.

Q: What about the Tmax (oral, 4 Cogni.Q vegicaps, subject S15 (177 lb), read-out: Tmax) of the same compound?
A: Its Tmax is 1 h.

Q: And the Tmax (oral, 4 Cogni.Q vegicaps, subject S16 (175 lb), read-out: Tmax)?
A: The Tmax was 3 h.

Q: And the AUC(0-t) (oral, 4 Cogni.Q vegicaps, subject S17 (147 lb), read-out: AUC0-48h)?
A: The AUC(0-t) was 593 nmol·h/L.

Q: And the Cmax (oral, 4 Cogni.Q vegicaps, subject S17 (147 lb), read-out: Cmax)?
A: The Cmax was 104 nM.

Q: And the half-life (oral, 4 Cogni.Q vegicaps, subject S17 (147 lb), read-out: Terminal t1/2, h (converted))?
A: Its half-life is 1450 min.

Q: What about the Tmax (oral, 4 Cogni.Q vegicaps, subject S17 (147 lb), read-out: Tmax) of the same compound?
A: The Tmax was 2 h.

Q: What about the half-life (oral, 4 Cogni.Q vegicaps, subject S18 (180 lb), outlier, excluded from means, read-out: Terminal t1/2, h (converted)) of the same compound?
A: The half-life was 3340 min.

Q: What about the AUC(0-t) (oral, 4 Cogni.Q vegicaps, subject S18 (180 lb), read-out: AUC0-48h) of the same compound?
A: Its AUC(0-t) is 48.1 nmol·h/L.

Q: And the Cmax (oral, 4 Cogni.Q vegicaps, subject S18 (180 lb), read-out: Cmax)?
A: Its Cmax is 3 nM.

Q: And the Tmax (oral, 4 Cogni.Q vegicaps, subject S18 (180 lb), read-out: Tmax)?
A: Its Tmax is 4 h.

Q: What about the AUC(0-t) (oral, 4 Cogni.Q vegicaps, subject S19 (130 lb), read-out: AUC0-48h) of the same compound?
A: The AUC(0-t) was 87.7 nmol·h/L.

Q: And the Cmax (oral, 4 Cogni.Q vegicaps, subject S19 (130 lb), read-out: Cmax)?
A: The Cmax was 6.9 nM.

Q: What about the half-life (oral, 4 Cogni.Q vegicaps, subject S19 (130 lb), read-out: Terminal t1/2, h (converted)) of the same compound?
A: The half-life was 960 min.

Q: What about the Tmax (oral, 4 Cogni.Q vegicaps, subject S19 (130 lb), read-out: Tmax) of the same compound?
A: Its Tmax is 4 h.

Q: And the half-life (oral, subject S16 (175 lb), outlier, excluded from means, read-out: Terminal t1/2, h (converted))?
A: Its half-life is 11400 min.

Q: What about the AUC(0-t) (oral, subject S16 (175 lb), read-out: AUC0-48h) of the same compound?
A: Its AUC(0-t) is 68.4 nmol·h/L.

Q: What about the Cmax (oral, subject S16 (175 lb), read-out: Cmax) of the same compound?
A: The Cmax was 4.3 nM.

Q: What about the AUC(0-t) (oral, subject S20 (200 lb), read-out: AUC0-48h) of the same compound?
A: Its AUC(0-t) is 170 nmol·h/L.

Q: What about the Cmax (oral, subject S20 (200 lb), read-out: Cmax) of the same compound?
A: Its Cmax is 17.2 nM.

Q: What about the half-life (oral, subject S20 (200 lb), read-out: Terminal t1/2, h (converted)) of the same compound?
A: Its half-life is 1130 min.

Q: And the Tmax (oral, subject S20 (200 lb), read-out: Tmax)?
A: The Tmax was 2 h.

Q: What about the “conversion of D/DA to DOH” value (humans, from plasma AUC0–48h values) of the same compound?
A: The value was > 98%.

Q: What about the AUC(0-t) (male, oral, 4 Cogni.Q vegicaps, Men n=10 (S1 Table), read-out: AUC0-48h, Mean) of the same compound?
A: The AUC(0-t) was 327 nmol·h/L.

Q: And the Cmax (male, oral, 4 Cogni.Q vegicaps, Men n=10 (S1 Table), read-out: Cmax, nM, Mean)?
A: The Cmax was 52.2 nM.

Q: And the Tmax (male, oral, 4 Cogni.Q vegicaps, Men n=10 (S1 Table), read-out: Tmax, h, Mean)?
A: Its Tmax is 2.1 h.

Q: What about the half-life (male, oral, Men, outliers excluded (S1 Table), read-out: Terminal t1/2, h, Mean (converted)) of the same compound?
A: Its half-life is 894 min.

Q: And the AUC(0-t) (male, po, Men N = 10, single oral dose Cogni.Q, read-out: AUC0–48h, h.nmol/L Mean (SD))?
A: The AUC(0-t) was 327 nmol·h/L.

Q: What about the Cmax (male, po, Men N = 10, single oral dose Cogni.Q, read-out: Cmax, nmol/L, Mean (SD)) of the same compound?
A: The Cmax was 52.2 nM.

Q: What about the Tmax (male, po, Men N = 10, single oral dose Cogni.Q, read-out: Tmax, h, Mean (SD)) of the same compound?
A: Its Tmax is 2.1 h.

Q: And the half-life (male, po, Men, outlier subjects excluded, single oral dose Cogni.Q, read-out: T1/2, h, terminal Mean (SD) (converted))?
A: Its half-life is 894 min.

Q: What about the “difference in C max among subjects in the same gender” value (same gender) of the same compound?
A: The value was “more than 20 fold”.
